# Data from a flash point compilation (Sun et al. 2020).
row,SMILES,flash point
1,C#CCC1=C(C)C(OC(=O)[C@H]2[C@H](C=C(C)C)C2(C)C)CC1=O (stereo partly drawn),139.00 °C
2,O=C([O-])CN(CCO)CCN(CC(=O)[O-])CC(=O)[O-].[Na+].[Na+].[Na+],100.00 °C
3,O=c1oc2ccccc2c(O)c1C(CC(O)c1ccc(-c2ccc(Br)cc2)cc1)c1ccccc1 (stereo not drawn),218.00 °C
4,C#CCN1CC(=O)N(COC(=O)C2C(C=C(C)C)C2(C)C)C1=O (stereo not drawn),110.00 °C
5,CC(C)(C)C(=O)C(Oc1ccc(Cl)cc1)n1cncn1 (stereo not drawn),72.00 °C
6,CC(C)C1=CC2=CC[C@@H]3[C@](C)(CCC[C@@]3(C)C(=O)O)[C@H]2CC1,187.00 °C
7,CC(C)CCCCCCCOP(=S)([S-])OCCCCCCCC(C)C.CC(C)CCCCCCCOP(=S)([S-])OCCCCCCCC(C)C.[Zn+2],280.00 °C
8,CC(C)CCCCCOP(=S)([S-])OCCCCCC(C)C.CC(C)CCCCCOP(=S)([S-])OCCCCCC(C)C.[Zn+2],160.00 °C
9,CC(C)N(C(=O)SCC(Cl)=C(Cl)Cl)C(C)C,90.00 °C
10,CC(C)N(C(=O)SCC(Cl)=CCl)C(C)C,96.00 °C
11,CC1(C)C(C(=O)OC(C#N)c2cccc(Oc3ccccc3)c2)C1C(Br)C(Br)(Br)Br (stereo not drawn),26.00 °C
12,COP(=S)(OC)Oc1ccc(SC)c(C)c1,170.00 °C
13,Cc1cc(C)cc(N)c1.Cc1ccc(C)c(N)c1.Cc1ccc(N)c(C)c1.Cc1ccc(N)cc1C.Cc1cccc(C)c1N.Cc1cccc(N)c1C,97.00 °C
14,COc1nc(C)nc(NC(=O)NS(=O)(=O)c2ccccc2CCC(F)(F)F)n1,100.00 °C
15,CCC(CC)C(=O)OCCOCCOCCOC(=O)C(CC)CC,196.00 °C
16,CC(C)CC(C)C(C)C.CCCC(C)CC(C)C.CCCCC(C)C(C)C (stereo not drawn),24.00 °C
17,CCCCC(CC)CN1C(=O)C2C3C=CC(C3)C2C1=O (stereo not drawn),177.00 °C
18,CCCCCCC(O)C/C=C\CCCCCCCC(=O)OCC(COC(=O)CCCCCCC/C=C\CC(O)CCCCCC)OC(=O)CCCCCCC/C=C\CC(O)CCCCCC (stereo not drawn),229.00 °C
19,CCCN(CCCl)c1c([N+](=O)[O-])cc(C(F)(F)F)cc1[N+](=O)[O-],30.00 °C
20,CCOC(=O)C1CC(=O)C(=C(O)C2CC2)C(=O)C1 (stereo not drawn),133.00 °C
21,CCOP(=O)(OCC)SCCSCC.CCOP(=S)(OCC)OCCSCC,45.00 °C
22,CCOP(=S)(Oc1ccc([N+](=O)[O-])cc1)c1ccccc1 (stereo not drawn),30.00 °C
23,CCOP(=S)(OCC)SCn1c(=O)oc2cc(Cl)ccc21,100.00 °C
24,CCOP(=S)(OCC)SCSCC,160.00 °C

row,SMILES,flash point
1,CCOP(=S)(OCC)SCSP(=S)(OCC)OCC,176.00 °C
2,C#CCOc1cccc(-c2cc(C(F)(F)F)nc(S(=O)CC)n2)c1 (stereo not drawn),240.00 °C
3,CN(C)CCCC1(c2ccccc2)C(=O)N(N(C)Cc2ccccc2F)c2ccccc21 (stereo not drawn),193.00 °C
4,COc1nn(CSP(=S)(OC)OC)c(=O)s1,100.00 °C
5,C[C@@H]1[C@@H](c2ccc(Cl)cc2)SC(=O)N1C(=O)NC1CCCCC1,100.00 °C
6,C[Si]1(C)O[Si](C)(C)O[Si](C)(C)O[Si](C)(C)O1,55.00 °C
7,C[Si]1(C)O[Si](C)(C)O[Si](C)(C)O[Si](C)(C)O[Si](C)(C)O[Si](C)(C)O1,91.00 °C
8,"c1ccc(-c2ccccc2)cc1 [1,1'-biphenyl]",113.00 °C
9,"CC1=Nc2ccc3ccccc3c2C1(C)C [1,1,2-trimethylbenzo[e]indole]",182.00 °C
10,"CC(Cl)(Cl)[N+](=O)[O-] [1,1-dichloro-1-nitroethane]",76.00 °C
11,"CC(C)OC(C)C(Cl)Cl (stereo not drawn) [1,1-dichloro-2-propan-2-yloxypropane]",85.00 °C
12,"CC(Cl)Cl [1,1-dichloroethane]",-6.00 °C
13,"C=C(Cl)Cl [1,1-dichloroethene]",-10.00 °C
14,"CCOC(C)OCC [1,1-diethoxyethane]",-21.00 °C
15,"CC(C)c1ccc(NC(=O)N(C)C)cc1 [1,1-dimethyl-3-(4-propan-2-ylphenyl)urea]",100.00 °C
16,"CN(C)N [1,1-dimethylhydrazine]",-15.00 °C
17,"Clc1c(Cl)c(Cl)c(Cl)c(Cl)c1Cl [1,2,3,4,5,6-hexachlorobenzene]",242.00 °C
18,"O=[N+]([O-])c1c(Cl)c(Cl)c(Cl)c(Cl)c1Cl [1,2,3,4,5-pentachloro-6-nitrobenzene]",127.00 °C
19,"c1ccc2c(c1)CCCC2 [1,2,3,4-tetrahydronaphthalene]",80.00 °C
20,"Clc1ccc(-c2ccc(Cl)c(Cl)c2Cl)c(Cl)c1Cl [1,2,3-trichloro-4-(2,3,4-trichlorophenyl)benzene]",141.00 °C
21,"ClC=C(Cl)CCl [1,2,3-trichloroprop-1-ene]",85.00 °C
22,"ClCC(Cl)CCl [1,2,3-trichloropropane]",82.00 °C
23,"CCc1cccc(CC)c1CC [1,2,3-triethylbenzene]",83.00 °C
24,"Clc1cc(Cl)c(Cl)cc1Cl [1,2,4,5-tetrachlorobenzene]",155.00 °C

row,SMILES,flash point
1,"CC(C)c1ccccc1C(C)C [1,2-di(propan-2-yl)benzene]",77.00 °C
2,"O=[N+]([O-])c1cccc(Cl)c1Cl [1,2-dichloro-3-nitrobenzene]",124.00 °C
3,"O=[N+]([O-])c1ccc(Cl)c(Cl)c1 [1,2-dichloro-4-nitrobenzene]",124.00 °C
4,"Clc1ccccc1Cl [1,2-dichlorobenzene]",66.00 °C
5,"ClCCCl [1,2-dichloroethane]",13.00 °C
6,"CC(=O)OC(Cl)CCl (stereo not drawn) [1,2-dichloroethyl acetate]",153.00 °C
7,"CC(Cl)CCl.ClC=CCCl (stereo not drawn) [1,2-dichloropropane;(E)-1,3-dichloroprop-1-ene]",17.00 °C
8,"CC(Cl)CCl (stereo not drawn) [1,2-dichloropropane]",16.00 °C
9,"CCOCCOCC [1,2-diethoxyethane]",35.00 °C
10,"O=C=Nc1ccc2ccccc2c1N=C=O [1,2-diisocyanatonaphthalene]",192.00 °C
11,"Cc1cccc([N+](=O)[O-])c1C [1,2-dimethyl-3-nitrobenzene]",107.00 °C
12,"c1ccc(-c2ccccc2-c2ccccc2)cc1 [1,2-diphenylbenzene]",163.00 °C
13,"Cc1ccccc1C [1,2-xylene]",17.00 °C
14,"CC12CCC(CC1)C(C)(C)O2 [1,3,3-trimethyl-2-oxabicyclo[2.2.2]octane]",49.00 °C
15,"ClC1=C(Cl)C2(Cl)C3C(Cl)C(Cl)CC3C1(Cl)C2(Cl)Cl (stereo not drawn) [1,3,4,7,8,9,10,10-octachlorotricyclo[5.2.1.02,6]dec-8-ene]",107.00 °C
16,"C1N2CN3CN1CN(C2)C3 [1,3,5,7-tetrazatricyclo[3.3.1.13,7]decane]",250.00 °C
17,"C1OCOCO1 [1,3,5-trioxane]",45.00 °C
18,"Cc1c(Cl)cccc1Cl [1,3-dichloro-2-methylbenzene]",82.00 °C
19,"CC1(C)C(=O)N(Cl)C(=O)N1Cl [1,3-dichloro-5,5-dimethylimidazolidine-2,4-dione]",174.00 °C
20,"Clc1cccc(-c2cc(Cl)cc(Cl)c2)c1 [1,3-dichloro-5-(3-chlorophenyl)benzene]",141.00 °C
21,"Clc1cccc(Cl)c1 [1,3-dichlorobenzene]",63.00 °C
22,"OC(CCl)CCl [1,3-dichloropropan-2-ol]",74.00 °C
23,"Cc1c(N=C=O)cccc1N=C=O [1,3-diisocyanato-2-methylbenzene]",132.00 °C
24,"CNC(=O)NC [1,3-dimethylurea]",154.00 °C

row,SMILES,flash point
1,"C1COCO1 [1,3-dioxolane]",2.00 °C
2,"Cc1cccc(C)c1 [1,3-xylene]",29.00 °C
3,"Clc1ccc(Cl)cc1 [1,4-dichlorobenzene]",66.00 °C
4,"CCc1ccc(CC)cc1 [1,4-diethylbenzene]",56.00 °C
5,"COc1ccc(OC)cc1 [1,4-dimethoxybenzene]",88.00 °C
6,"O=C=Nc1cccc2c(N=C=O)cccc12 [1,5-diisocyanatonaphthalene]",155.00 °C
7,"ClCCCCCCCl [1,6-dichlorohexane]",74.00 °C
8,OOC1(OOC2(O)CCCCC2)CCCCC1 [1-(1-hydroperoxycyclohexyl)peroxycyclohexan-1-ol],157.00 °C
9,CCCCOCCOCCCC [1-(2-butoxyethoxy)butane],85.00 °C
10,CC1CCC(C(C)(C)OO)CC1 (stereo not drawn) [1-(2-hydroperoxypropan-2-yl)-4-methylcyclohexane],53.00 °C
11,CC(O)COCC(C)O (stereo not drawn) [1-(2-hydroxypropoxy)propan-2-ol],138.00 °C
12,CCC(O)OCCCOC (stereo not drawn) [1-(3-methoxypropoxy)propan-1-ol],74.00 °C
13,Cc1ccccc1CBr [1-(bromomethyl)-2-methylbenzene],82.00 °C
14,Cc1cccc(CBr)c1 [1-(bromomethyl)-3-methylbenzene],82.00 °C
15,C=CCSSCCC [1-(prop-2-enyldisulfanyl)propane],56.00 °C
16,CCCSSCCC [1-(propyldisulfanyl)propane],66.00 °C
17,"CC(CCN(C)C)N(C)C (stereo not drawn) [1-N,1-N,3-N,3-N-tetramethylbutane-1,3-diamine]",46.00 °C
18,"CCC(C)Nc1ccc(NC(C)CC)cc1 (stereo not drawn) [1-N,4-N-di(butan-2-yl)benzene-1,4-diamine]",141.00 °C
19,"c1ccc(Nc2ccc(Nc3ccccc3)cc2)cc1 [1-N,4-N-diphenylbenzene-1,4-diamine]",204.00 °C
20,"CC(C)Nc1ccc(Nc2ccccc2)cc1 [1-N-phenyl-4-N-propan-2-ylbenzene-1,4-diamine]",151.00 °C
21,c1ccc2occc2c1 [1-benzofuran],56.00 °C
